{"source": "ChEMBL document CHEMBL1201862", "about": "“PubChem BioAssay data set” (2004)", "key": {"[1]": {"experiment": "BHK-21 cell cytotoxicity, cytotoxicity control for flavivirus guanylyltransferase probe project, secondary screen (AID 624078)", "type": "functional"}, "[2]": {"experiment": "P. falciparum Dd2 growth inhibitors, dose response, SYBR Green, cherry-picked samples (AID 1159567)", "type": "functional, cell-based"}, "[3]": {"experiment": "HepG2 cell cytotoxicity, dose response, cytotoxicity control, cherry-picked samples (AID 1159577)", "type": "functional, cell-based"}, "[4]": {"experiment": "NIH:OVCAR-3 ovarian cancer cell cytotoxicity, dose response, PAX8 inhibitor project, plate reader, dry powder samples (AID 743044)", "type": "functional, cell-based"}, "[5]": {"experiment": "IGROV1 ovarian cancer cell cytotoxicity, dose response, PAX8 inhibitor project, plate reader, dry powder samples (AID 743043)", "type": "functional, cell-based", "conditions": "IGROV-1"}, "[6]": {"experiment": "non-specific cell cytotoxicity, dose response, cytotoxicity control for PAX8 inhibitor project, plate reader, dry powder samples (AID 743021)", "type": "functional, cell-based"}, "Paired box protein Pax-8": {"molecular_target": "Paired box protein Pax-8 (Homo sapiens, UniProt Q06710)", "experiment": "inhibitors of PAX8-driven TPO luciferase reporter, dose response, RMG-I cells, cherry-pick (AID 687027);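 note: luciferase reporter driven by Pax8 target thyroperoxidase promoter measured by SteadyGlo luminescence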", "type": "functional, cell-based"}, "[7]": {"experiment": "P. falciparum Dd2 growth inhibitors, dose response, SYBR Green, dry powder samples, set 9 (AID 1159568)", "type": "functional, cell-based"}, "[8]": {"experiment": "LGR2 antagonists, dose response, cell-based, HEK293, CRE-luciferase reporter, cherry pick (AID 743342)", "type": "functional"}, "[9]": {"experiment": "HepG2 cell cytotoxicity, dose response, cytotoxicity control, plate reader, cherry-pick, antagonist series (AID 743416)", "type": "functional, cell-based"}, "[10]": {"experiment": "HEK293 cell cytotoxicity, dose response, cytotoxicity control, plate reader, cherry-picked samples (AID 743446)", "type": "functional, cell-based"}, "[11]": {"experiment": "A549 cell cytotoxicity, dose response, cytotoxicity control, plate reader, cherry-pick, antagonist series (AID 743412)", "type": "functional, cell-based"}, "[12]": {"molecular_target": "NAD-dependent protein deacylase sirtuin-5, mitochondrial (Homo sapiens, UniProt Q9NXA8)", "experiment": "SIRT5 deacylase inhibitors, dose response, biochemical, fluorescence imaging, cherry-pick, set 6 (AID 720597)"}, "[13]": {"experiment": "cytotoxicity in OVCAR8 ovarian cancer cells, dose response, PAX8 project, cell-based, plate reader, dry powder samples (AID 743197)", "type": "functional", "conditions": "OVCAR-8"}, "Protein Tat": {"molecular_target": "Protein Tat (Human immunodeficiency virus type 1 group M subtype B (isolate HXB2)(HIV-1), UniProt P04608)", "type": "functional"}, "[14]": {"molecular_target": "Protein-tyrosine kinase 2-beta (Homo sapiens, UniProt Q14289)"}, "Cytochrome P450 2C9": {"molecular_target": "Cytochrome P450 2C9 (Homo sapiens, UniProt P11712)"}, "Cytochrome P450 2D6": {"molecular_target": "Cytochrome P450 2D6 (Homo sapiens, UniProt P10635)"}, "Major prion protein": {"molecular_target": "Major prion protein (Homo sapiens, UniProt P04156)", "type": "functional, cell-based"}, "[15]": {"experiment": "HepG2 cell cytotoxicity, dose response, cytotoxicity control, cherry-picks, set 5 (AID 1053118)", "type": "functional, cell-based"}, "[16]": {"experiment": "A549 cell cytotoxicity, dose response, cytotoxicity control, cherry-picks, 26 µM top dose (AID 1053119)", "type": "functional, cell-based"}, "[17]": {"experiment": "inhibitors of fibronectin matrix deposition, dose response, AH1F cells, Alexa488-FN fluorescence, cherry-picks (AID 1035475)", "type": "functional, cell-based"}, "[18]": {"experiment": "HEK293 cell cytotoxicity, dose response, cytotoxicity control, cherry-picks, set 5 (AID 1053117)", "type": "functional, cell-based"}, "[19]": {"experiment": "Late stage counterscreen for inhibitors of Trypanosoma brucei methionyl tRNA synthetase (MetRS): Luminescence-based cell-based high throughput dose response assay to identify compounds that are cytotoxic to Jurkat human T lymphocyte cells.", "type": "functional"}, "[20]": {"experiment": "Vero cell cytotoxicity, dose response, cytotoxicity control for Vif-APOBEC3G degradation inhibitor project, Vero cells (AID 1117358)", "type": "functional", "conditions": "Human immunodeficiency virus 1, Vero"}}, "note": "The source made the active and inactive calls."}
{"smiles": "Cn1c(=O)c2[nH]c(-c3ccc(Cl)cc3)c(O)c2n(C)c1=O", "values": [{"measurement": "CC50", "setting": "[1]", "value": "> 100 µM (active)"}]}
{"smiles": "CCS(=O)(=O)N1CC2(C1)[C@@H](c1ccccc1)[C@H](CO)N2Cc1ccc(F)cc1", "values": [{"measurement": "AC50", "setting": "[2]", "value": "6 µM (active)"}, {"measurement": "AC50", "setting": "[3]", "value": "> 39 µM (inactive)"}]}
{"smiles": "C[C@@H]1CCCCO[C@H](CN(C)Cc2ccc(Cl)c(Cl)c2)[C@@H](C)CN([C@@H](C)CO)C(=O)c2cc(NS(=O)(=O)c3ccccc3)ccc2O1", "values": [{"measurement": "AC50", "setting": "[4]", "value": "21.2 µM (active)"}, {"measurement": "AC50", "setting": "[5]", "value": "44.6 µM (active)"}, {"measurement": "AC50", "setting": "[6]", "value": "2.38 µM (active)"}, {"measurement": "AC50", "setting": "Paired box protein Pax-8", "value": "5 µM (active)"}]}
{"smiles": "C[C@@H]1CCCCO[C@H](CN(C)S(=O)(=O)c2ccccc2)[C@@H](C)CN([C@@H](C)CO)C(=O)c2cc(NC(=O)Nc3ccc4c(c3)OCO4)ccc2O1", "values": [{"measurement": "AC50", "setting": "[7]", "value": "1.64 µM (active)"}]}
{"smiles": "C[C@H]1CCCCO[C@@H](CN(C)C(=O)Nc2ccc(C(F)(F)F)cc2)[C@@H](C)CN([C@@H](C)CO)C(=O)c2cc(NC(=O)CCC(F)(F)F)ccc2O1", "values": [{"measurement": "AC50", "setting": "[8]", "value": "4.55 µM (active)"}, {"measurement": "AC50", "setting": "[9]", "value": "> 52 µM (inactive)"}, {"measurement": "AC50", "setting": "[10]", "value": "> 52 µM (inactive)"}, {"measurement": "AC50", "setting": "[11]", "value": "31 µM (active)"}]}
{"smiles": "C[C@@H]1CCCCO[C@H](CN(C)Cc2ccc(C(F)(F)F)cc2)[C@@H](C)CN([C@@H](C)CO)C(=O)c2cc(NS(=O)(=O)c3ccccc3)ccc2O1", "values": [{"measurement": "AC50", "setting": "[12]", "value": "23.5 µM (active)"}, {"measurement": "AC50", "setting": "[13]", "value": "67.5 µM (active)"}, {"measurement": "AC50", "setting": "Paired box protein Pax-8", "value": "4.17 µM (active)"}]}
{"smiles": "COC(=O)C(C)Sc1nnc(Cc2cc(O)nc(O)n2)n1-c1cc(C)ccc1C", "note": "(configuration not stated)", "values": [{"measurement": "IC50", "setting": "Protein Tat", "value": "> 100 µM (active)"}]}
{"smiles": "CCc1nc(SCC(=O)NNC(=O)C2CCCCC2)c2ccccc2n1", "values": [{"measurement": "IC50", "setting": "[14]", "value": "> 69.5 µM (not active)"}, {"measurement": "IC50", "setting": "cells", "value": "> 138 µM (inactive)"}, {"measurement": "AC50", "setting": "Cytochrome P450 2C9", "value": "inconclusive"}, {"measurement": "AC50", "setting": "Cytochrome P450 2D6", "value": "inconclusive"}, {"measurement": "IC50", "setting": "Major prion protein", "value": "1.18 µM (active)"}]}
{"smiles": "CO[C@@H]1CN(C)C(=O)c2ccc(NC(=O)Nc3ccc(Cl)c(Cl)c3)cc2OC[C@@H](C)NC[C@@H]1C", "values": [{"measurement": "AC50", "setting": "[15]", "value": "24.2 µM (active)"}, {"measurement": "AC50", "setting": "[16]", "value": "13.1 µM (active)"}, {"measurement": "AC50", "setting": "[17]", "value": "36.8 µM (active)"}, {"measurement": "AC50", "setting": "[18]", "value": "20.4 µM (active)"}]}
{"smiles": "O=C(CCC(=O)Nc1cccc([N+](=O)[O-])c1)NN=Cc1cccs1", "values": [{"measurement": "IC50", "setting": "[19]", "value": "> 83.3 µM (inactive)"}]}
{"smiles": "CCCCCO/C(O)=C1\\C(C)=Nc2nnnn2C1c1ccccc1Cl", "note": "(configuration not stated)", "values": [{"measurement": "CC50", "setting": "[20]", "value": "> 40 µM (active)"}]}
